Data published in publication PMC9518264, “Design and synthesis of novel quinazolinone-based derivatives as EGFR inhibitors with antitumor activity” (Journal of Enzyme Inhibition and Medicinal Chemistry, 2022).

Assays:
[1] = system: K-562; experiment: cells; type: cell-based; settings: Homo sapiens, K562; K-562; 10 μM; read-out: growth inhibition % (GI%)
[2] = system: SF-268; experiment: cells; type: cell-based; settings: Homo sapiens; SF-268; 10 μM; read-out: growth inhibition % (GI%)
[3] = system: SF-295; experiment: cells; type: cell-based; settings: Homo sapiens; SF-295; 10 μM; read-out: growth inhibition % (GI%)
[4] = system: SK-OV-3; experiment: cells; type: cell-based; settings: Homo sapiens; SK-OV-3; 10 μM; read-out: growth inhibition % (GI%)
[5] = system: MDA-MB-435; experiment: cells; type: cell-based; settings: Homo sapiens; MDA-MB-435; 10 μM; read-out: growth inhibition % (GI%)
[6] = system: IGROV1; experiment: cells; type: cell-based; settings: Homo sapiens, IGROV-1; IGROV1; 10 μM; read-out: growth inhibition % (GI%)
[7] = system: OVCAR-5; experiment: cells; type: cell-based; settings: Homo sapiens; OVCAR-5; 10 μM; read-out: growth inhibition % (GI%)
[8] = system: MDA-MB-468; experiment: NCI 60 cell line antiproliferative screening (SRB), Breast cancer; settings: Homo sapiens, MDA-MB-468, read-out: growth inhibition % (GI%)
[9] = system: COLO-205; experiment: cells; type: cell-based; settings: Homo sapiens; COLO-205; 10 μM; read-out: growth inhibition % (GI%)
[10] = system: NCI-H322M; experiment: cells; type: cell-based; settings: Homo sapiens, 10 μM, read-out: growth inhibition % (GI%)
[11] = system: SK-MEL-2; experiment: cells; type: cell-based; settings: Homo sapiens; SK-MEL-2; 10 μM; read-out: growth inhibition % (GI%)
[12] = system: EKVX; experiment: cells; type: cell-based; settings: Homo sapiens, 10 μM, read-out: growth inhibition % (GI%)
[13] = system: RPMI-8226; experiment: cells; type: cell-based; settings: Homo sapiens; RPMI-8226; 10 μM; read-out: growth inhibition % (GI%)
[14] = system: MALME-3M; experiment: cells; type: cell-based; settings: Homo sapiens; MALME-3M; 10 μM; read-out: growth inhibition % (GI%)
[15] = system: A549/ATCC; experiment: cells; type: cell-based; settings: Homo sapiens; A549/ATCC; 10 μM; read-out: growth inhibition % (GI%)
[16] = system: MOLT-4; experiment: cells; type: cell-based; settings: Homo sapiens; MOLT-4; 10 μM; read-out: growth inhibition % (GI%)
[17] = system: HOP-62; experiment: cells; type: cell-based; settings: Homo sapiens; HOP-62; 10 μM; read-out: growth inhibition % (GI%)
[18] = system: T-47D; experiment: cells; type: cell-based; settings: Homo sapiens, T47D; T-47D; 10 μM; read-out: growth inhibition % (GI%)
[19] = system: SK-MEL-28; experiment: cells; type: cell-based; settings: Homo sapiens; SK-MEL-28; 10 μM; read-out: growth inhibition % (GI%)
[20] = system: MCF7; experiment: cells; type: cell-based; settings: Homo sapiens; MCF7; 10 μM; read-out: growth inhibition % (GI%)
[21] = system: DU-145; experiment: cells; type: cell-based; settings: Homo sapiens; DU-145; 10 μM; read-out: growth inhibition % (GI%)
[22] = system: PC-3; experiment: cells; type: cell-based; settings: Homo sapiens; PC-3; 10 μM; read-out: growth inhibition % (GI%)
[23] = system: MDA-MB-231/ATCC; experiment: NCI 60 cell line antiproliferative screening (SRB), Breast cancer; type: cell-based; settings: Homo sapiens, MDA-MB-231, read-out: growth inhibition % (GI%)
[24] = system: SW-620; experiment: cells; type: cell-based; settings: Homo sapiens; SW-620; 10 μM; read-out: growth inhibition % (GI%)
[25] = system: UACC-62; experiment: cells; type: cell-based; settings: Homo sapiens; UACC-62; 10 μM; read-out: growth inhibition % (GI%)
[26] = system: SK-MEL-5; experiment: cells; type: cell-based; settings: Homo sapiens; SK-MEL-5; 10 μM; read-out: growth inhibition % (GI%)
[27] = system: A498; experiment: cells; type: cell-based; settings: Homo sapiens; A498; 10 μM; read-out: growth inhibition % (GI%)
[28] = system: SN12C; experiment: cells; type: cell-based; settings: Homo sapiens, 10 μM, read-out: growth inhibition % (GI%)
[29] = system: SNB-19; experiment: cells; type: cell-based; settings: Homo sapiens; SNB-19; 10 μM; read-out: growth inhibition % (GI%)
[30] = system: HOP-92; experiment: cells; type: cell-based; settings: Homo sapiens; HOP-92; 10 μM; read-out: growth inhibition % (GI%)
[31] = system: OVCAR-8; experiment: cells; type: cell-based; settings: Homo sapiens; OVCAR-8; 10 μM; read-out: growth inhibition % (GI%)
[32] = system: panel of 60 tumour cell lines; experiment: NCI 60 cell line antiproliferative screening (SRB), whole panel or subpanels (means, ranges, words); type: cell-based, human; settings: for antiproliferative activity against all tested cell lines: 10 μM single dose; for inhibition at 10 µM: Homo sapiens, 60 cell, mean over the cell line panel, read-out: Mean growth inhibition % (mean GI%)
[33] = system: U251; experiment: cells; type: cell-based; settings: Homo sapiens, U-251; U251; 10 μM; read-out: growth inhibition % (GI%)
[34] = system: ACHN; experiment: cells; type: cell-based; settings: Homo sapiens, 10 μM, read-out: growth inhibition % (GI%)
[35] = system: SF-539; experiment: cells; type: cell-based; settings: Homo sapiens; SF-539; 10 μM; read-out: growth inhibition % (GI%)
[36] = system: HT29; experiment: cells; type: cell-based; settings: Homo sapiens, HT-29; HT29; 10 μM; read-out: growth inhibition % (GI%)
[37] = system: BT-549; experiment: cells; type: cell-based; settings: Homo sapiens; BT-549; 10 μM; read-out: growth inhibition % (GI%)
[38] = system: NCI-H460; experiment: cells; type: cell-based; settings: Homo sapiens; NCI-H460; 10 μM; read-out: growth inhibition % (GI%)
[39] = system: NCI/ADR-RES; experiment: cells; type: cell-based; settings: Homo sapiens, 10 μM, read-out: growth inhibition % (GI%)
[40] = system: CCRF-CEM; experiment: cells; type: cell-based; settings: Homo sapiens, 10 μM, read-out: growth inhibition % (GI%)
[41] = system: KM12; experiment: cells; type: cell-based; settings: Homo sapiens; KM12; 10 μM; read-out: growth inhibition % (GI%)
[42] = system: LOX IMIV; experiment: cells; type: cell-based; settings: Homo sapiens, 60 cell; LOX IMIV; 10 μM; read-out: growth inhibition % (GI%)
[43] = system: SR; experiment: cells; type: cell-based; settings: Homo sapiens, 10 μM, read-out: growth inhibition % (GI%)
[44] = system: HS 578T; experiment: cells; type: cell-based; settings: Homo sapiens; HS 578T; 10 μM; read-out: growth inhibition % (GI%)
[45] = system: UO-31; experiment: cells; type: cell-based; settings: Homo sapiens; UO-31; 10 μM; read-out: growth inhibition % (GI%)
[46] = system: 786-0; experiment: cells; type: cell-based; settings: Homo sapiens; 786-0; 10 μM; read-out: growth inhibition % (GI%)
[47] = system: HCT-116; experiment: cells; type: cell-based; settings: Homo sapiens; HCT-116; 10 μM; read-out: growth inhibition % (GI%)

O=C(CSc1nc2ccccc2c(=O)n1-c1ccccc1)NN=Cc1ccc(N2CCOCC2)cc1 [6h, N'-(4-morpholinobenzylidene)-2-((4-oxo-3-phenyl-3,4-dihydroquinazolin-2-yl)thio)acetohydrazide]
inhibition at 10 µM [1]: < 15% | inhibition at 10 µM [2]: < 15% | inhibition at 10 µM [3]: < 15% | inhibition at 10 µM [4]: < 15% | inhibition at 10 µM [5]: < 15% | inhibition at 10 µM [6]: < 15% | inhibition at 10 µM [7]: < 15% | inhibition at 10 µM [8]: < 15% | inhibition at 10 µM [9]: < 15% | inhibition at 10 µM [10]: < 15% | inhibition at 10 µM [11]: < 15% | inhibition at 10 µM [12]: < 15% | inhibition at 10 µM [13]: < 15% | inhibition at 10 µM [14]: < 15% | inhibition at 10 µM [15]: < 15% | inhibition at 10 µM [16]: < 15% | inhibition at 10 µM [17]: < 15% | inhibition at 10 µM [18]: < 15% | inhibition at 10 µM [19]: < 15% | inhibition at 10 µM [20]: < 15% | inhibition at 10 µM [21]: < 15% | inhibition at 10 µM [22]: < 15% | inhibition at 10 µM [23]: < 15% | inhibition at 10 µM [24]: < 15% | inhibition at 10 µM [25]: < 15% | inhibition at 10 µM [26]: < 15% | inhibition at 10 µM [27]: 15.8% | inhibition at 10 µM [28]: < 15% | inhibition at 10 µM [29]: < 15% | inhibition at 10 µM [30]: 18.7% | inhibition at 10 µM [31]: < 15% | antiproliferative activity against all tested cell lines [32]: did not show activity | inhibition at 10 µM [32]: < 0% | inhibition at 10 µM [33]: < 15% | inhibition at 10 µM [34]: < 15% | inhibition at 10 µM [35]: < 15% | inhibition at 10 µM [36]: < 15% | inhibition at 10 µM [37]: < 15% | inhibition at 10 µM [38]: < 15% | inhibition at 10 µM [39]: < 15% | inhibition at 10 µM [40]: < 15% | inhibition at 10 µM [41]: < 15% | inhibition at 10 µM [42]: < 15% | inhibition at 10 µM [43]: < 15% | inhibition at 10 µM [44]: < 15% | inhibition at 10 µM [45]: < 15% | inhibition at 10 µM [46]: < 15% | inhibition at 10 µM [47]: < 15%

CN1CCN(c2ccc(C=NNC(=O)CSc3nc4ccccc4c(=O)n3-c3ccccc3)cc2)CC1 [6i, N'-(4–(4-methylpiperazin-1-yl)benzylidene)-2-((4-oxo-3-phenyl-3,4-dihydroquinazolin-2-yl)thio) acetohydrazide]
inhibition at 10 µM [1]: < 15% | inhibition at 10 µM [2]: < 15% | inhibition at 10 µM [3]: < 15% | inhibition at 10 µM [4]: < 15% | inhibition at 10 µM [5]: < 15% | inhibition at 10 µM [6]: < 15% | inhibition at 10 µM [7]: < 15% | inhibition at 10 µM [8]: < 15% | inhibition at 10 µM [9]: < 15% | inhibition at 10 µM [10]: < 15% | inhibition at 10 µM [11]: < 15% | inhibition at 10 µM [12]: < 15% | inhibition at 10 µM [13]: < 15% | inhibition at 10 µM [14]: < 15% | inhibition at 10 µM [15]: < 15% | inhibition at 10 µM [16]: < 15% | inhibition at 10 µM [17]: < 15% | inhibition at 10 µM [18]: < 15% | inhibition at 10 µM [19]: < 15% | inhibition at 10 µM [20]: < 15% | inhibition at 10 µM [21]: < 15% | inhibition at 10 µM [22]: < 15% | inhibition at 10 µM [23]: < 15% | inhibition at 10 µM [24]: < 15% | inhibition at 10 µM [25]: < 15% | inhibition at 10 µM [26]: < 15% | inhibition at 10 µM [27]: 10.2% | inhibition at 10 µM [28]: < 15% | inhibition at 10 µM [29]: < 15% | inhibition at 10 µM [30]: < 15% | inhibition at 10 µM [31]: < 15% | antiproliferative activity against all tested cell lines [32]: did not show activity | inhibition at 10 µM [32]: < 0% | inhibition at 10 µM [33]: < 15% | inhibition at 10 µM [34]: < 15% | inhibition at 10 µM [35]: < 15% | inhibition at 10 µM [36]: < 15% | inhibition at 10 µM [37]: < 15% | inhibition at 10 µM [38]: < 15% | inhibition at 10 µM [39]: < 15% | inhibition at 10 µM [40]: < 15% | inhibition at 10 µM [41]: < 15% | inhibition at 10 µM [42]: < 15% | inhibition at 10 µM [43]: < 15% | inhibition at 10 µM [44]: < 15% | inhibition at 10 µM [45]: < 15% | inhibition at 10 µM [46]: < 15% | inhibition at 10 µM [47]: < 15%
